IC50, Activity and Ratio IC50 data for 7 compounds are collected here from ChEMBL document CHEMBL1137447 (Bioorg Med Chem, 2007).

The target in assay [1] is T1, Prostaglandin G/H synthase 1 (Ovis aries, UniProt P05979).
T1 sequence (P05979 whole entry): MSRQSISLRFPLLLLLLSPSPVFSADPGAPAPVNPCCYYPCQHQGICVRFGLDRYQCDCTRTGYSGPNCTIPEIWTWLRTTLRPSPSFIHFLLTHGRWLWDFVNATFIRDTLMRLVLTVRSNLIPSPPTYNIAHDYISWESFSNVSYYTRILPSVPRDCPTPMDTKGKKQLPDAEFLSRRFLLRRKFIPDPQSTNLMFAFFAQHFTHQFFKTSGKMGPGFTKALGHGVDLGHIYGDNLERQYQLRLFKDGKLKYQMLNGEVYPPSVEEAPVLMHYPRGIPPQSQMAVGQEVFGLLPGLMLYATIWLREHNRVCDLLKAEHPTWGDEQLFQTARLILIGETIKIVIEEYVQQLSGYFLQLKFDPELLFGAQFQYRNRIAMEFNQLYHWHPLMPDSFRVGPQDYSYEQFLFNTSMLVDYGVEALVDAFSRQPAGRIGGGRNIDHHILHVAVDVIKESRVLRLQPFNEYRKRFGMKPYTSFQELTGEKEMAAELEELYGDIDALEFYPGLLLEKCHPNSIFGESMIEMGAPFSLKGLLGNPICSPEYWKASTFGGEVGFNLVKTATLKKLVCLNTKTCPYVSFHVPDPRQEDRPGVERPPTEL
The experiment in a line: Inhibition of ovine COX1 by enzyme immuno assay.

The nature of assay [2]: Effect on nitric oxide release in pH 7.4 PBS buffer at 37 degC after 1.5 hrs. Type of assay: functional.
The species entered for assay [3] is Ovis aries. The experiment in a line: Selectivity index, ratio of IC50 for ovine COX1 to IC50 for ovine COX2.
The nature of assay [4]: Effect on nitric oxide release in pH 7.4 PBS buffer in presence of rat serum at 37 degC after 1.5 hrs. It counts as functional.

For the compound `CC(=O)Nc1ccc(/C(=C\c2ccc(S(C)(=O)=O)cc2)C(=O)OCO/N=[N+](/[O-])N2CCCC2)cc1`, the IC50 in assay [1] was over 100000 nM. The results for the Activity in assay [2] and in assay [4] were 9.9% and 73%, respectively. Also, in assay [3], the Ratio IC50 is over 106.
The like results for `CCN(CC)/[N+]([O-])=N\OCOC(=O)/C(=C/c1ccc(S(C)(=O)=O)cc1)c1ccc(NC(C)=O)cc1` were, in that order, over 100000 nM, 6.5%, 70.4% and over 5.9.
`CCN(CC)/[N+]([O-])=N/O`: the Activity in assay [2] is 85%; in assay [4] it was 85.1%.
In assay [1], `CS(=O)(=O)c1ccc(/C=C(/C(=O)OCO/N=[N+](/[O-])N2CCCC2)c2ccc(F)cc2)cc1` gave a half-inhibitory concentration (IC50) of over 100000 nM. Further, the Activity in assay [2] came to 11.3%; in assay [4], 67.1%. In addition, the Ratio IC50 in assay [3] is over 9.2.
The like results for `CCN(CC)/[N+]([O-])=N\OCOC(=O)/C(=C/c1ccc(S(C)(=O)=O)cc1)c1cccc(Br)c1` were, in that order, 1100 nM, 3.2%, 59.2% and 0.03.
Take `CS(=O)(=O)c1ccc(/C=C(/C(=O)OCO/N=[N+](/[O-])N2CCCC2)c2cccc(Br)c2)cc1`: inhibition in assay [1] was half-maximal at 2500 nM (IC50). For the same compound, the results for the Activity in assay [2] and in assay [4] were 6.9% and 48.6%, respectively. Also, the Ratio IC50 in assay [3] worked out at 0.22.
On to `CCN(CC)/[N+]([O-])=N\OCOC(=O)/C(=C/c1ccc(S(C)(=O)=O)cc1)c1ccc(F)cc1`, for which the IC50 in assay [1] amounted to 1000 nM. In addition, the Activity in assay [2] was found to be 7.1%; in assay [4], 75.3%. The Ratio IC50 in assay [3] is 0.43.
